Legend:
[1] = Particle size and polydispersity index of nanoparticle compositions (Zetasizer Nano ZS); type: physicochemical; conditions: Table 1A; for Size (nm): lipid:DSPC:cholesterol:PEG-DMG 50:10:38.5:1.5 mol %
Procedure, shortened: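 Values are size and PDI readings from a Zetasizer Nano ZS. Measurements are taken in 1×PBS; zeta potential, by contrast, uses 15 mM PBS.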

[2] = Encapsulation efficiency of RNA (QUANT-IT RIBOGREEN RNA assay); type: physicochemical; conditions: Table 1A
Procedure, shortened: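 RiboGreen fluorescence (ex ~480, em ~520 nm) compared between intact samples and Triton X-100-lysed samples after 15 min at 37 °C in TE buffer, pH 7.5. Percent free RNA is the blank-corrected intact/disrupted ratio.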

[3] = Apparent (surface) pKa of the LNP formulation (TNS assay); type: physicochemical; conditions: for pKa: Table 1A
Procedure, shortened: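 Fluorescence of TNS probe added to LNP samples (mRNA 0.04 mg/mL) was read across 21 buffers of pH about 3-12, triplicate per pH. The inflection point of the sigmoidal fluorescence-vs-pH curve, […], gives apparent pKa; method validated in 1× PBS and Tris/sucrose buffer.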

[4] = test system: luciferase (Luc) mRNA; assay: Luc expression, whole body bioluminescence after intravenous administration to mice; type: in vivo; conditions: for Total Flux 3 hours / Total Flux 6 hours / Total Flux 24 hours: Luc mRNA; for Fold increase in total body Luc Flux relative to MC3 at 6 h: Table 3A, i.v. administration
Procedure, shortened: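 Bioluminescence, read as region-of-interest total flux at 3, 6 and 24 h, followed a single 0.5 mg/kg intravenous dose of Luc mRNA-loaded nanoparticles in mice (n=6). Luciferin substrate (200 μL, 15 mg/mL in PBS) was injected intraperitoneally into CD-1 mice 15 minutes ahead of each imaging point.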

[5] = test system: luciferase (Luc) mRNA; assay: Luc expression in liver, lung, spleen and femur 6 hours after intravenous administration; type: in vivo; conditions: mice, intravenous, 0.5 mpk
Procedure, shortened: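 LNP-formulated mRNA given IV to mice (n=3) at 0.5 mpk; at 6 h, bioluminescence imaged ex vivo 15 min after IP D-luciferin (15 mg/mL, 200 μL), organs imaged within 25 min. Values are total flux by region of interest.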

[6] = test system: IL-6, IP-10; assay: Cytokine induction in mice upon intravenous administration; type: in vivo; parameters: Cytokine induction IL-6 / Cytokine induction IP-10: unit not given here; conditions: 0.5 mpk, 6 hours; for Cytokine induction IL-6 / Cytokine induction IP-10: intravenous; for IP-10 induction: i.v., in words
Text: The introduction of foreign material into a mammalian body induces an innate immune response that promotes cytokine production. Such immune responses to, for example, nanoparticle compositions including therapeutic and/or prophylactics, are undesirable. The induction of certain cytokines is thus measured to evaluate the […] of nanoparticle compositions. The concentrations of various cytokines in mice upon intravenous administration of nanoparticle compositions presented in Table 1A at a dosage of 0.5 mpk was measured at 6 hours. The standard MC3 formulation and a PBS control were also tested. As is evident in Table 7, IL-6 induction was highest for compositions including Compounds 1, 3, 9, 19, and 26, while IP-10 induction was highest for compositions including Compounds 3, 4, 7, 20, and 26. IL-6 induction was lowest for compositions including Compounds 4, 11, 12, and 28. IP-10 induction was lowest for compositions including Compounds 10, 11, 12, 13, 15, 17, and 18.

[7] = test system: luciferase (Luc) mRNA; assay: Luc expression (total flux) after intramuscular administration; type: in vivo, mice; conditions: for AUC (p/s * h) / Lipid/MC3 AUC: Table 3H, intramuscular, Luc; for Total flux, 0.001 mpk Dose / Total flux, 0.01 mpk Dose: 6 hours after intramuscular administration, Luc mRNA and H10 mRNA
Description: In order to monitor how effectively various nanoparticle compositions deliver therapeutic and/or prophylactics to targeted cells, different nanoparticle compositions including a particular therapeutic and/or prophylactic (for example, a modified or naturally occurring RNA such as an mRNA) are prepared and administered to rodent populations. Mice are intravenously, intramuscularly, intraarterially, or intratumorally administered a single dose including a nanoparticle composition with a formulation such as those provided in Example 3. In some instances, mice may be made to inhale doses. Dose sizes may range from 0.001 mg/kg to 10 mg/kg, where 10 mg/kg describes a dose including 10 mg of a therapeutic and/or prophylactic in a nanoparticle composition for each 1 kg of body mass of the mouse. A control composition including PBS may also be employed.
Sample formulations including both modified luciferase (Luc) mRNA and H10 mRNA were prepared and administered intramuscularly and the resulting expression and immunogenicity were evaluated simultaneously. Formulations including compounds according to Formula (I), (IA), (IB), (II), (IIa), (IIb), (IIc), (IId), (IIe), (IIf), (IIg), (III), (VI), (VI-a), (VII), (VIII), (VIIa), (VIIIa), (VIIIb), (VIIb-1), (VIIb-2), (VIIb-3), (VIIc), (VIId), (VIIIc), or (VIIId) were prepared and administered at doses of 0.001 and 0.01 mpk (e.g., doses of 0.0005 mpk of a formulation including Luc mRNA and a formulation including H10 mRNA or doses of 0.005 mpk of a formulation including Luc mRNA and a formulation including H10 mRNA).
Sample formulations including modified luciferase (Luc) mRNA prepared and administered intramuscularly and the resulting expression and immunogenicity were evaluated simultaneously. Formulations including compounds according to Formula (I), (IA), (IB), (II), (IIa), (IIb), (IIc), (IId), (IIe), (IIf), (IIg), (III), (VI), (VI-a), (VII), (VIII), (VIIa), (VIIIa), (VIIIb), (VIIb-1), (VIIb-2), (VIIb-3), (VIIc), (VIId), (VIIIc), or (VIIId) were prepared and administered at dose of and 0.01 mpk.

SMILES	PDI [1]	Size (nm) [1] [nm]	EE (%) [2] [%]	pKa [3]	Total Flux 3 hours ([4]; mice, i.v., 0.5 mg/kg)	Total Flux 6 hours ([4]; mice, i.v., 0.5 mg/kg)	Total Flux 24 hours ([4]; mice, i.v., 0.5 mg/kg)	Total Flux Femur [5]	Total Flux Liver [5]	Total Flux Lung [5]	Total Flux Spleen [5]	Cytokine induction IL-6 [6]	Cytokine induction IP-10 [6]	Fold increase in total body Luc Flux relative to MC3 at 6 h [4]	IP-10 induction [6]	further results
CCCCCCCCCOC(=O)CCCCCCCN(CCCCCCCC(=O)OC(CCCCCCCC)CCCCCCCC)C1CCCCC1O (stereo not drawn) [Compound 22, Heptadecan-9-yl 8-((2-hydroxycyclohexyl)(8-(nonyloxy)-8-oxooctyl)amino)octanoate]	0.22	80.2	96.00	6.21	6.57E+08	3.89E+08	2.73E+07	1.16E+05	4.00E+07	4.73E+05	1.57E+06	90.54	976.50			
CCCCCCCCC(CCCCCCCC)OC(=O)CCCCCCCN(CCO)CCCC(=O)OC(CCCCC)CCCCCCCC (stereo not drawn) [Compound 71, Heptadecan-9-yl 8-((2-hydroxyethyl)(4-oxo-4-(tetradecan-6-yloxy)butyl)amino)octanoate]	0.24	71	97.54	5.88	4.09E+09	9.28E+09	6.51E+07		7.93E+08	4.86E+06	8.04E+06			0.418		AUC (p/s * h) [7]: 6.61E+07 p/s * h; Lipid/MC3 AUC [7]: 0.11
CCCCCCCCCOC(=O)CCCCCCCN(CCCCCCCC(=O)OC(CCCCCCCC)CCCCCCCC)CC(O)CC (stereo not drawn) [Compound 13, Heptadecan-9-yl 8-((2-hydroxybutyl)(8-(nonyloxy)-8-oxooctyl)amino) octanoate]	0.13	79.4	92.28	5.67	1.02E+08	1.56E+08	1.47E+06	1.35E+05	2.25E+07	2.21E+05	7.09E+05	29.07	126.29		lowest	
CCCCCCCCCOC(=O)CCCCCCCN(CCCCCCCC(=O)OC(CCCCCCCC)CCCCCCCC)CCOCCN(C)C [Compound 17, Heptadecan-9-yl 8-((2-(2-(dimethylamino)ethoxy)ethyl) (8-(nonyloxy)-8-oxooctyl)amino)octanoate]	0.24	85.2	91.84	7.76	7.72E+06	3.58E+06	6.79E+05	9.55E+04	5.52E+05	9.95E+04	5.58E+06	138.43	156.41		lowest	flux at all timepoints measured ([4]; mice, i.v., 0.5 mg/kg, 3, 6 and 24 hour, in words): significantly lower flux
CCCCCCCCCOC(=O)CCCCCCCN(CCCCCCCC(=O)OC(CCCCCCCC)CCCCCCCC)CCOC [Compound 15, Heptadecan-9-yl 8-((2-methoxyethyl)(8-(nonyloxy)-8-oxooctyl)amino)octanoate]	0.094	111.1	92.47	5.58	4.31E+08	4.41E+07	2.05E+06	5.93E+04	6.23E+06	6.41E+04	9.01E+05	64.65	184.30		lowest	
CCCCCCCCCOC(=O)CCCCCCCN(CCO)CCCCCCCC(=O)OC(CCCCCC)CCCCCCCC (stereo not drawn) [Compound 32, nonyl 8-((2-hydroxyethyl)(8-oxo-8-(pentadecan-7-yloxy)octyl)amino) octanoate]	0.18	105.6	94.87	6.75	8.65E+10	6.08E+10	1.92E+09		8.52E+09	1.16E+07	1.70E+08			1.39		total flux at 3 hours ([4]; mice, i.v., 0.5 mg/kg, comparison in words): highest; Total flux, 0.001 mpk Dose [7]: 7.37E+05 p/s; Total flux, 0.01 mpk Dose [7]: 1.03E+07 p/s
CCCCCCCCCOC(=O)CCCCCCCN(CCO)CCCCCCCC(=O)OC(CC)CCCCCCCC (stereo not drawn) [Compound 35, nonyl 8-((2-hydroxyethyl)(8-oxo-8-(undecan-3-yloxy)octyl)amino) octanoate]	0.18	151.1	90.82	6.85	9.82E+08	1.24E+09	5.09E+07		1.63E+08	2.06E+06	1.23E+08			0.028		Total flux, 0.001 mpk Dose [7]: 2.45E+06 p/s; Total flux, 0.01 mpk Dose [7]: 8.12E+06 p/s
CCCCCCCCCOC(=O)CCCCCCCN(CCCCCCCC(=O)OC(CCCCCCCC)CCCCCCCC)C(CO)CO [Compound 156, Heptadecan-9-yl 8-((1,3-dihydroxypropan-2-yl)(8-(nonyloxy)-8-oxooctyl)amino)octanoate]	0.11	68.1	98.47	6.572	5.68E+09	1.03E+10	6.53E+07		6.51E+08	1.92E+06	1.82E+07					App. pKa ([3]; Table 3F): 6.57; Lipid/MC3 AUC ([4]; Table 3D, intravenous): 0.61; AUC (p/s * h) ([4]; Table 3D, intravenous, Luc): 1.170E+011 p/s * h; AUC (p/s * h) [7]: 3.92E+07 p/s * h; Lipid/MC3 AUC [7]: 0.07

Source: patent US12263248B2, “Compounds and compositions for intracellular delivery of therapeutic agents” (ModernaTX, Inc., priority 2018, dated 2025)
